Measurements published in patent US10047084B2, “Imidazolone derivatives, pharmaceutical compositions and uses thereof” (BEIJING FORELANDPHARMA CO. LTD., priority 2013, dated 2018).

Key:
[1] = molecular target: mTOR kinase (Homo sapiens (Human), UniProt P42345); test: mTOR kinase activity assay (TR-FRET, GFP-4EBP1 substrate); assay type: biochemical; details: read-out: Enzyme (mTOR) IC50
[2] = test system: SK-BR3/BT474; test: CTG cell survival assay, SK-BR3/BT474; assay type: cell-based; details: SK-BR3/BT474 cells
Summary of the method: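 Cells were exposed to compounds in a 3-fold dilution series, with a top final concentration of 10 uM in 0.1% DMSO. Viable cells were quantified by CellTiter-Glo ATP luminescence.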

mTOR kinase, sequence (P42345 1360-2549): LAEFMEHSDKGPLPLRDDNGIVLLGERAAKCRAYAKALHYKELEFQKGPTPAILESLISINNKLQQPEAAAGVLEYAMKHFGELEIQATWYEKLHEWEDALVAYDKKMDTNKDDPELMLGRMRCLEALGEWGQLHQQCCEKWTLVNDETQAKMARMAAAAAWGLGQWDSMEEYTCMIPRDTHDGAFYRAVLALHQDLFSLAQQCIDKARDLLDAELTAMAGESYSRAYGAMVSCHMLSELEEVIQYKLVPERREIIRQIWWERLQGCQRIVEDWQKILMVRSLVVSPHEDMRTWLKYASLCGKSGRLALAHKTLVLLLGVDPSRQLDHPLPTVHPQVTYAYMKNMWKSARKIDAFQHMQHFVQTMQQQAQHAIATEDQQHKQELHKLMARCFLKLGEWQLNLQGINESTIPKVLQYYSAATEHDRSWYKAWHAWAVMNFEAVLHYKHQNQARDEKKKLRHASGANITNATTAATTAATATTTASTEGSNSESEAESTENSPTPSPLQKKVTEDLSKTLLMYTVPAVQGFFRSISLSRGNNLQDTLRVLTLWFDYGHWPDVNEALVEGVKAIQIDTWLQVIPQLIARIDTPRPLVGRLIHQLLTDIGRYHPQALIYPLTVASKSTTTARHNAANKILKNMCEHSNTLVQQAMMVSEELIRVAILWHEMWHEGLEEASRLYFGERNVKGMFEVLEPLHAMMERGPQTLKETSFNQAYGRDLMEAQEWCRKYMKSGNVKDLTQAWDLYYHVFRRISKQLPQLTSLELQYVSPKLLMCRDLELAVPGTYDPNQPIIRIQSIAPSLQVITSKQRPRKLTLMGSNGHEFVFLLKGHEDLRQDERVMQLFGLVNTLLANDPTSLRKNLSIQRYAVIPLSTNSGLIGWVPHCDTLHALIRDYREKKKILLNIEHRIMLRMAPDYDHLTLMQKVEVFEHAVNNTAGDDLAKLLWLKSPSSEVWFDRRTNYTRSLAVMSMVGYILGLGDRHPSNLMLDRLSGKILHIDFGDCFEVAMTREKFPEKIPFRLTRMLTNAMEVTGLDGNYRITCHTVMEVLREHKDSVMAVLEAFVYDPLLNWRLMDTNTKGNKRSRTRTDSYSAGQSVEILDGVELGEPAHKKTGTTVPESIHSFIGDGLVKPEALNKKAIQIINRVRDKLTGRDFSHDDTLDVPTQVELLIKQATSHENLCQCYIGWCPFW

Structure (SMILES) | IC50 [1] [nM] | EC50 [2] [nM]
Cn1cc(-c2ccc(-c3ccc4ncc5c(c4c3)n(C3CCCN(S(C)(=O)=O)C3)c(=O)n5C)cn2)cn1 (centres unmarked) [Example 3, 3-methyl-8-(6-(1-methyl-1H-pyrazol-4-yl)pyridin-3-yl)-1-(1-(methanesulfonyl)piperidin-3-yl)-1H-imidazo[4,5-c]quinolin-2(3H)-one] | < 10 | < 100
Cn1cc(-c2ccc(-c3ccc4ncc5c(c4c3)n([C@H]3CC[C@@H](O)CC3)c(=O)n5C)cn2)cn1 [Example 18, 1-((1s,4s)-4-hydroxycyclohexyl)-3-methyl-8-(6-(1-methyl-1H-pyrazol-4-yl)pyridin-3-yl)-1H-imidazo[4,5-c]quinolin-2(3H)-one] | < 10 | < 50
Cn1cc(-c2ccc(-c3ccc4ncc5c(c4c3)n([C@H]3CCN(S(C)(=O)=O)C3)c(=O)n5C)cn2)cn1 [Example 28, (S)-3-methyl-8-(6-(1-methyl-1H-pyrazol-4-yl)pyridin-3-yl)-1-(1-(methanesulfonyl)pyrrolidin-3-yl)-1H-imidazo[4,5-c]quinolin-2(3H)-one] | < 10 | < 50
Cn1cc(-c2ccc(-c3ccc4ncc5c(c4c3)n([C@@H]3CCCN(S(C)(=O)=O)C3)c(=O)n5C)cn2)cn1 [Example 31, (R)-3-methyl-8-(6-(1-methyl-1H-pyrazol-4-yl)pyridin-3-yl)-1-(1-(methanesulfonyl)piperidin-3-yl)-1H-imidazo[4,5-c]quinolin-2(3H)-one] | < 10 | < 100
